Values quoted from earlier work as cited in patent US4032635A, “Pharmaceutical method for the therapy of immune diseases” (Zaidan Hojin Biseibutsu Kagaku Kenkyu Kai, priority 1975, dated 1977).

How the values were obtained:
histidine decarboxylase = details: cited from earlier work
[1] = tested on: antibody formation, anaphylaxis or contact dermatitis; details: in vivo; cited from earlier work
[2] = tested on: experimental allergic encephalomyelitis (EAE); details: cited from earlier work
[3] = tested on: nucleic acid and/or protein synthesis; details: cited from earlier work
[4] = tested on: autoimmune diseases, some infection allergies and dermatological contact allergies, transplantation immunological responses; details: in vivo; cited from earlier work
[5] = tested on: humoral and cell-mediated immunities; details: cited from earlier work
[6] = tested on: MS and related autoimmune diseases; details: long-term administration; cited from earlier work

For `NNC(Cc1c[nH]cn1)C(=O)O` (centres unmarked) [2-hydrazino-3-(4-imidazolyl)-propionic acid], the “inhibition of histidine decarboxylase” value (histidine decarboxylase) is given as “inhibitor of histidine decarboxylase” and the “inhibition of antibody formation, anaphylaxis or contact dermatitis” value [1] is given as “inhibits antibody formation, anaphylaxis or contact dermatitis”.

For `O=P1(N(CCCl)CCCl)NCCCO1` (centres unmarked) [cyclophosphamide], the “EAE after discontinuation of the drug (known agents)” value ([2]; after discontinuation and following a latent period) is listed as “the animals often develop paralytic EAE”, the “suppression of development of EAE (known agents)” value ([2]; at such high doses as would cause toxicity) is listed as “can suppress the development of EAE” and the “effect on nucleic acid and/or protein synthesis” value [3] is listed as “disrupt nucleic acid and/or protein synthesis”. The “effectiveness in therapy of autoimmune diseases, allergies, transplantation responses” value [4] was “effective in the therapy of autoimmune diseases, some infection allergies and dermatological contact allergies”, the “dose at which effective / cytotoxicity” value [5] was “effective in general only at near-lethal doses owing to their cytotoxicity” and the “inhibition of humoral and cell-mediated immunities” value [5] was “inhibit both humoral and cell-mediated immunities”.

For `CCOc1c(N)c2c(c(OCC)c1OCC)C(C1c3c(cc4c(c3OC)OCO4)CCN1C)OC2=O` (centres unmarked) [tritoqualine], the “inhibition of histidine decarboxylase” value (histidine decarboxylase) is listed as “inhibitor of histidine decarboxylase” and the “inhibition of antibody formation, anaphylaxis or contact dermatitis” value [1] is listed as “inhibits antibody formation, anaphylaxis or contact dermatitis”.

For “ACTH: presently applied to patients with MS and related autoimmune diseases (SYSMEHFRWGKPVGKKRRPVKVYPNGAEDESAEAFPLEF; Corticotropin; UniProt P01189 138-176, looked up)”, the “effects in patients with MS” value [6] is given as “effects are limited due to serious side-effects caused by long-term administration of the drug”.
